Experimental data taken from publication PMC5314759 (2016).

Columns and labels:
[1] = test system: poly[d(A-T)2] (DNA, polymer) AT; assay: UV thermal melting; settings: compound concentration not given here; no significant stabilization
[2] = test system: poly[d(G-C)2] (DNA, polymer) GC; assay: UV thermal melting; settings: compound concentration not given here; no significant stabilization
[3] = test system: poly[d(A-T)2] (DNA, polymer) AT; assay: ethidium bromide fluorescence displacement; settings: apparent; ethidium bromide displaced; Kapp = Kb × 12.6/C50; over 5 h
[4] = test system: poly[d(G-C)2] (DNA, polymer) GC; assay: ethidium bromide fluorescence displacement; settings: apparent; ethidium bromide displaced; Kapp = Kb × 12.6/C50; over 5 h

SMILES | ΔTM [1] | ΔTM [2] | Kapp [3] | Kapp [4]
COC1=CC=C2[C@H]3Cc4ccc(OCc5c(C)c(COc6ccc7c8c6O[C@H]6C(OC)=CC=C9[C@@H](C7)N(C)CC[C@]986)c(C)c(COc6ccc7c8c6O[C@H]6C(OC)=CC=C9[C@@H](C7)N(C)CC[C@]986)c5C)c5c4[C@@]2(CCN3C)[C@H]1O5 | −0.17 ± 0.25 °C | 0.36 ± 0.17 °C | 3.63 × 10^6 M(bp)^-1 | 3.5 × 10^7 M(bp)^-1
CO[C@H]1C=C[C@H]2[C@H]3Cc4ccc(OCc5c(C)c(COc6ccc7c8c6O[C@H]6[C@@H](OC)C=C[C@H]9[C@@H](C7)N(C)CC[C@@]896)c(C)c(COc6ccc7c8c6O[C@H]6[C@@H](OC)C=C[C@H]9[C@@H](C7)N(C)CC[C@@]896)c5C)c5c4[C@@]2(CCN3C)[C@H]1O5 | 0.73 ± 0.18 °C | 1.72 ± 0.61 °C | 9.1 × 10^6 M(bp)^-1 | 1.15 × 10^7 M(bp)^-1
Cc1c(COc2ccc3c4c2O[C@H]2[C@@H](O)C=C[C@H]5[C@@H](C3)N(C)CC[C@@]452)c(C)c(COc2ccc3c4c2O[C@H]2[C@@H](O)C=C[C@H]5[C@@H](C3)N(C)CC[C@@]452)c(C)c1COc1ccc2c3c1O[C@H]1[C@@H](O)C=C[C@H]4[C@@H](C2)N(C)CC[C@@]341 | 0.38 ± 0.71 °C | 2.63 ± 0.58 °C | 3.03 × 10^5 M(bp)^-1 | 2.69 × 10^5 M(bp)^-1
